According to the supplement of paper PMC10627819:

Columns and labels:
[1] = test system: B. subtilis 168; experiment: fitness (endpoint OD595 vs no drug) (fraction); higher = more growth
How it was run: (§1)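 In 384-well plates at 37 °C, cultures began at OD595 0.01 in 30 µl, with 55 µl used for S. pneumoniae. OD595 readings every 30 min for 14 h were corrected by the first reading. Fitness divides the stationary-phase transition optical density by the robust mean of no-drug control wells. The result is capped at 1.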

[2] = test system: S. aureus DSM 20231; experiment: as above
How it was run: as §1

[3] = test system: B. subtilis 168; experiment: Bliss interaction score (quartile over a dose matrix) (fitness difference); higher = more antagonism (negative = synergy)
How it was run: (§2)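 Combination data were used to infer fitness under each single drug. Fitness is the OD595 at entry into stationary phase divided by the robust mean of the plate's no-drug wells, with a cap of 1. The Bliss score is the observed minus the expected product fitness, summarised by quartiles over technical, biological and donor/recipient replicates.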

[4] = test system: S. aureus DSM 20231; experiment: as above
How it was run: as §2

[5] = test system: S. aureus Newman; experiment: as above
How it was run: as §2

[6] = test system: S. pneumoniae D39V; experiment: as above
How it was run: as §2
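Wherever Bliss interaction score (quartile over a dose matrix) is given: first quartile when negative (synergy) and third quartile when positive (antagonism).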

COc1c(N2C[C@@H]3CCCN[C@@H]3C2)c(F)cc2c(=O)c(C(=O)O)cn(C3CC3)c12 [Moxifloxacin] + COc1cc(Cc2cnc(N)nc2N)cc(OC)c1OC [Trimethoprim]
one replicate
Conditions	fitness
[1], first compound 0.0312 µg/mL, partner 0.1 µg/mL	0.0166
[1], first compound 0.0312 µg/mL, partner 0.2 µg/mL	0.0497
[1], first compound 0.0312 µg/mL, partner 0.4 µg/mL	0.0325
[1], first compound 0.0625 µg/mL, partner 0.1 µg/mL	0.0397
[1], first compound 0.0625 µg/mL, partner 0.2 µg/mL	0.0393
[1], first compound 0.0625 µg/mL, partner 0.4 µg/mL	0.011
[1], first compound 0.125 µg/mL, partner 0.1 µg/mL	0.0162
[1], first compound 0.125 µg/mL, partner 0.2 µg/mL	0.0361
[1], first compound 0.125 µg/mL, partner 0.4 µg/mL	0.0203
[1], first compound 2 µg/mL, partner 1 µg/mL	0.0073
[1], first compound 2 µg/mL, partner 2 µg/mL	0.0287
[1], first compound 4 µg/mL, partner 1 µg/mL	0.0329
[1], first compound 4 µg/mL, partner 2 µg/mL	0.0297
[1], first compound 8 µg/mL, partner 1 µg/mL	0.0126
[1], first compound 8 µg/mL, partner 2 µg/mL	0.0291
[2], first compound 0.0075 µg/mL, partner 0.125 µg/mL	0.719
[2], first compound 0.015 µg/mL, partner 0.125 µg/mL	0.627
[2], first compound 0.06 µg/mL, partner 0.125 µg/mL	0.653
[2], first compound 0.06 µg/mL, partner 0.25 µg/mL	0.44
[2], first compound 0.06 µg/mL, partner 0.5 µg/mL	0.191
[2], first compound 0.12 µg/mL, partner 0.125 µg/mL	0.343
[2], first compound 0.12 µg/mL, partner 0.25 µg/mL	0.139
[2], first compound 0.12 µg/mL, partner 0.5 µg/mL	0.0509

fitness
Conditions	partner 0.125 µg/mL	partner 0.25 µg/mL	partner 0.5 µg/mL	partner 1 µg/mL
[1], first compound 0.0312 µg/mL	0.0627	0.103	0.0656	–
[1], first compound 0.0625 µg/mL	0.0366	0.0436	0.0539	–
[1], first compound 0.125 µg/mL	0.0399	0.0294	0.0335	–
[1], first compound 2 µg/mL	–	–	0.0293	–
[1], first compound 4 µg/mL	–	–	0.0245	–
[1], first compound 8 µg/mL	–	–	0.0127	–
[2], first compound 0.0075 µg/mL	–	0.559	0.0549	0.0253
[2], first compound 0.015 µg/mL	–	0.525	0.0366	0.0226
[2], first compound 0.03 µg/mL	0.552	0.376	0.041	0.0152

Conditions	Bliss interaction score
[3]	0.0283
[4]	-0.0854
[5]	-0.193
[6]	0.0963

CCCCCCCCCC(=O)N[C@H]1[C@H](Oc2c3cc4cc2Oc2ccc(cc2Cl)[C@@H](O[C@@H]2O[C@H](CO)[C@@H](O)[C@H](O)[C@H]2NC(C)=O)[C@@H]2NC(=O)[C@H](NC(=O)[C@@H]4NC(=O)[C@H]4NC(=O)[C@@H](Cc5ccc(c(Cl)c5)O3)NC(=O)[C@H](N)c3ccc(O)c(c3)Oc3cc(O)cc4c3)c3ccc(O)c(c3)-c3c(O[C@H]4O[C@H](CO)[C@@H](O)[C@H](O)[C@@H]4O)cc(O)cc3[C@@H](C(=O)O)NC2=O)O[C@H](CO)[C@@H](O)[C@@H]1O [Teicoplanin] + COc1cc(Cc2cnc(N)nc2N)cc(OC)c1OC [Trimethoprim]
fitness, [2], main component drawn
Conditions	partner 0.125 µg/mL	partner 0.25 µg/mL	partner 0.5 µg/mL	partner 1 µg/mL
first compound 0.1562 µg/mL	0.733	0.591	0.0778	0.0229
first compound 0.3125 µg/mL	0.798	0.61	0.0585	0.0126
first compound 0.625 µg/mL	0.708	–	0.0794	0.0061

main component drawn
Conditions	Bliss interaction score
[3]	-0.0836
[4]	-0.167
[5]	-0.249
[6]	-0.0668
